# Experimental data reported in US20150197492A1, “NOVEL INDENO[1,2-c]QUINOLIN-11-ONE DERIVATIVES, PREPARATION METHOD AND APPLICATION THEREOF” (National Defense Medical Center, priority 2014, published 2015).
# Tested on: 60 cancer cell lines
# Experiment: NCI five-dose level screening test, second stage (GI50, TGI, LC50)
# Format: cell-based
# Settings: for Subpanel MID^b (average sensitivity of all cell line of a particular subpanel) / MID^a (average sensitivity of all cell line): GI50; for MID^a (average sensitivity of all cell line): all cell lines
# Excerpt: From the results, compounds SJ-3 (NSC 772864) and SJ-10 (NSC 772862) were selected by NCI for a five-dose level screening test and the mean growth percentage of the 60 cancer cell lines for the two compounds are 62.4 and −14.37, respectively. […] A summary of the NCI data provides information on the inhibition effect of various compound in different cancer cell lines (FIGS. 3 to 16 and Tables 3 to 8). […] Table 9 indicates the GI50, TGI and LC50 of the NCI data of TC-XCl, SJ-3 and SJ-10 NCI.
# [1] = Non-Small Cell Lung Cancer subpanel
smiles,measurement,setting,value
"CCN(CC)CCNc1nc2ccccc2c2c1-c1ccc(Cl)cc1C2=O [SJ-3, 6-(2-(Diethylamino)ethylamino)-9-chloro-11H-indeno[1,2-c]quinolin-11-one]",Selectivity ratio (MID^a:MID^b),Breast Cancer subpanel,1.159
same,Subpanel MID^b (average sensitivity of all cell line of a particular subpanel),Breast Cancer subpanel,12.345 µM
same,Selectivity ratio (MID^a:MID^b),CNS Cancer subpanel,0.962
same,Subpanel MID^b (average sensitivity of all cell line of a particular subpanel),CNS Cancer subpanel,14.875 µM
same,Selectivity ratio (MID^a:MID^b),Colon Cancer subpanel,0.778
same,Subpanel MID^b (average sensitivity of all cell line of a particular subpanel),Colon Cancer subpanel,18.400 µM
same,Selectivity ratio (MID^a:MID^b),Leukemia subpanel,1.475
same,Subpanel MID^b (average sensitivity of all cell line of a particular subpanel),Leukemia subpanel,9.696 µM
same,Selectivity ratio (MID^a:MID^b),Melanoma subpanel,0.914
same,Subpanel MID^b (average sensitivity of all cell line of a particular subpanel),Melanoma subpanel,15.654 µM
same,Selectivity ratio (MID^a:MID^b),[1],1.210
same,Subpanel MID^b (average sensitivity of all cell line of a particular subpanel),[1],11.819 µM
same,Selectivity ratio (MID^a:MID^b),Ovarian Cancer subpanel,0.820
same,Subpanel MID^b (average sensitivity of all cell line of a particular subpanel),Ovarian Cancer subpanel,17.448 µM
same,Selectivity ratio (MID^a:MID^b),Prostate Cancer subpanel,0.914
same,Subpanel MID^b (average sensitivity of all cell line of a particular subpanel),Prostate Cancer subpanel,15.650 µM
same,Selectivity ratio (MID^a:MID^b),Renal Cancer subpanel,1.124
same,Subpanel MID^b (average sensitivity of all cell line of a particular subpanel),Renal Cancer subpanel,12.733 µM
same,MID^a (average sensitivity of all cell line),,14.306 µM
"O=C1c2cc(Cl)ccc2-c2c(N3CCNCC3)nc3ccccc3c21 [SJ-10, 9-Chloro-6-(piperazin-1-yl)-11H-indeno[1,2-c]quinolin-11-one]",Selectivity ratio (MID^a:MID^b),Breast Cancer subpanel,1.541
same,Subpanel MID^b (average sensitivity of all cell line of a particular subpanel),Breast Cancer subpanel,6.813 µM
same,Selectivity ratio (MID^a:MID^b),CNS Cancer subpanel,1.304
same,Subpanel MID^b (average sensitivity of all cell line of a particular subpanel),CNS Cancer subpanel,8.053 µM
same,Selectivity ratio (MID^a:MID^b),Colon Cancer subpanel,1.075
same,Subpanel MID^b (average sensitivity of all cell line of a particular subpanel),Colon Cancer subpanel,9.763 µM
same,Selectivity ratio (MID^a:MID^b),Leukemia subpanel,0.954
same,Subpanel MID^b (average sensitivity of all cell line of a particular subpanel),Leukemia subpanel,11.000 µM
same,Selectivity ratio (MID^a:MID^b),Melanoma subpanel,0.528
same,Subpanel MID^b (average sensitivity of all cell line of a particular subpanel),Melanoma subpanel,19.894 µM
same,Selectivity ratio (MID^a:MID^b),[1],1.621
same,Subpanel MID^b (average sensitivity of all cell line of a particular subpanel),[1],6.477 µM
same,Selectivity ratio (MID^a:MID^b),Ovarian Cancer subpanel,0.772
same,Subpanel MID^b (average sensitivity of all cell line of a particular subpanel),Ovarian Cancer subpanel,13.591 µM
same,Selectivity ratio (MID^a:MID^b),Prostate Cancer subpanel,1.959
same,Subpanel MID^b (average sensitivity of all cell line of a particular subpanel),Prostate Cancer subpanel,5.360 µM
same,Selectivity ratio (MID^a:MID^b),Renal Cancer subpanel,1.648
same,Subpanel MID^b (average sensitivity of all cell line of a particular subpanel),Renal Cancer subpanel,6.370 µM
same,MID^a (average sensitivity of all cell line),,10.498 µM
